The record followed here is the NIST ThermoML archive (doi:10.1021/acs.jced.8b00578).

For data set [1] the following is noted: Crystal; DSC.
A short description of data set [2]: Molar enthalpy of transition or fusion. To be noted: Crystal; DSC.

Numbers after ± are expanded uncertainties.

As to `O=C(O)c1cc2ccccc2cc1O` [3-hydroxy-2-naphthoic acid], in data set [1], the Triple point temperature came out at 494.4 ± 0.81 K. Also, the “Molar enthalpy of transition or fusion” value in data set [2] stood at 6.62 ± 0.311 kcal/mol.
